Each block holds one compound with its values, some of them ahead of it.
Key:
Prostaglandin E synthase [1] = molecular target: T1, Prostaglandin E synthase (Homo sapiens, UniProt O14684); assay: Inhibition of microsomal PGES1 in ILbeta-stimulated human A549 cells using PGH2 as substrate preincubated for 15 mins followed by substrate addition measured after 1 min by RP-HPLC analysis; assay type: cell-based
T1 sequence (O14684 whole entry): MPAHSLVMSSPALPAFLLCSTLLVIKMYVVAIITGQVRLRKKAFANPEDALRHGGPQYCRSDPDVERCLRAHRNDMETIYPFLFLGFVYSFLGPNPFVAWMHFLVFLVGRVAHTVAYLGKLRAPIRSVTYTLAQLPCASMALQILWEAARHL

[2] = molecular target: T2, Prostaglandin G/H synthase 2 (Homo sapiens, UniProt P35354); assay: Inhibition of COX2 in IL1beta-induced human A549 cells using arachidonic acid as substrate assessed as 6-keto PGF1a formation preincubated for 10 mins followed by substrate addition measured after 30 mins by enzyme immunoassay; assay type: cell-based
T2 sequence (P35354 whole entry): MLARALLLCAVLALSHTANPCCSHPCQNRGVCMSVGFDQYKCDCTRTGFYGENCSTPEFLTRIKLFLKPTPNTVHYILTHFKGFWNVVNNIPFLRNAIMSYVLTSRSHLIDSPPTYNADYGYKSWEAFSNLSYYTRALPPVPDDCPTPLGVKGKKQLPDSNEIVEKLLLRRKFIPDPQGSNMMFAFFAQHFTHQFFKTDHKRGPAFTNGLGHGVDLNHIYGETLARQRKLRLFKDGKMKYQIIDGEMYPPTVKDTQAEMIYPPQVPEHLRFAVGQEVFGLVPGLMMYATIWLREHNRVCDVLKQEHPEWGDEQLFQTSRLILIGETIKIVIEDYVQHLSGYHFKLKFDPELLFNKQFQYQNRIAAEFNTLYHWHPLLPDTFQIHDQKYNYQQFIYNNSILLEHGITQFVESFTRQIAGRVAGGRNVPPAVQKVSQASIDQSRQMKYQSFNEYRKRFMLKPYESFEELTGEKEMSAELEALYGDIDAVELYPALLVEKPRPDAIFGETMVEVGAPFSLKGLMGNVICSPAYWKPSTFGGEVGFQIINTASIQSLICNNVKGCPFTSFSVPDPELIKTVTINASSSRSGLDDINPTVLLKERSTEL

Prostaglandin E synthase [3] = molecular target: T1, Prostaglandin E synthase; assay: Inhibition of microsomal PGES1 (unknown origin)
[4] = molecular target: Prostaglandin G/H synthase 1 (Homo sapiens, UniProt P23219); assay: Inhibition of COX1 (unknown origin)
Prostaglandin E synthase [5] = molecular target: T1, Prostaglandin E synthase; assay: Inhibition of recombinant human microsomal PGES1 using PGH2 as substrate preincubated for 15 mins followed by substrate addition measured after 5 mins by enzyme immunoassay
Prostaglandin E synthase [6] = molecular target: T1, Prostaglandin E synthase; assay: Inhibition of human microsomal PGES1 using PGH2 as substrate incubated for 90 secs by MDA-TBA assay
[7] = Inhibition of recombinant rat microsomal PGES1 using PGH2 as substrate incubated for 90 secs by MDA-TBA assay
[8] = molecular target: T3, Prostaglandin E synthase (Mus musculus) (UniProt Q9JM51); assay: Inhibition of microsomal PGES1 in mouse J774 cells assessed as reduction of LPS-induced PGE2 production inhibition at 100 uM by radioimmuno assay in presence of radio labelled PGE2; assay type: cell-based
T3 sequence (whole entry): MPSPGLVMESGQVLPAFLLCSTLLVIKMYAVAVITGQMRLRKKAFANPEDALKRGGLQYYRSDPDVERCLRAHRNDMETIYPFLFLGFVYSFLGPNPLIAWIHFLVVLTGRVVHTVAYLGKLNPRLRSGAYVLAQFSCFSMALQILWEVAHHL

Prostaglandin E synthase [9] = molecular target: T1, Prostaglandin E synthase; assay: Inhibition of microsomal PGES1 in ILbeta/TNFalpha-stimulated human A549 cells using PGH2 as substrate preincubated for 15 mins followed by substrate addition measured after 1 min by LC-MS/MS analysis; assay type: cell-based
[10] = molecular target: T4, Polyunsaturated fatty acid 5-lipoxygenase (Homo sapiens, UniProt P09917); assay: Inhibition of 5-lipooxygenase (unknown origin)
T4 sequence (P09917 whole entry): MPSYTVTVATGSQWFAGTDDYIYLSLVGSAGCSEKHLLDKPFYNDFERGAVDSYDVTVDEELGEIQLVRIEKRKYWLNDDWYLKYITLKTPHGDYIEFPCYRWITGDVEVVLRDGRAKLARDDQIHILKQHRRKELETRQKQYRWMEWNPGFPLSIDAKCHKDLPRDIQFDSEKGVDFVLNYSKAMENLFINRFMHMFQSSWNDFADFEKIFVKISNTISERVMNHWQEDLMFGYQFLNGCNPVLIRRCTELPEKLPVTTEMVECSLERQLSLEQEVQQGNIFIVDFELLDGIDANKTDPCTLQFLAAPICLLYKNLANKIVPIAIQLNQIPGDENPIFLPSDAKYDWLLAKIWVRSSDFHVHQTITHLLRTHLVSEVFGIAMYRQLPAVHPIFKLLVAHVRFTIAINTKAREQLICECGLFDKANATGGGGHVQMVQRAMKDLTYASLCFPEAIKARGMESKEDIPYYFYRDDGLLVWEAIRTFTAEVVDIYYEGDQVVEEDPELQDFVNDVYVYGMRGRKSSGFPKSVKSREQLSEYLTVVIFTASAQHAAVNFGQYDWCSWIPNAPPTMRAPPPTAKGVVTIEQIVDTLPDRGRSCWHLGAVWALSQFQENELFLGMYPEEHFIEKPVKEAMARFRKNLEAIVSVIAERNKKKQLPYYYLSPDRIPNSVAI

[11] = Inhibition of recombinant rat microsomal PGES1 using PGH2 as substrate after 75 secs by MDA-TBA assay
Prostaglandin E synthase [12] = molecular target: T1, Prostaglandin E synthase; assay: Inhibition of human microsomal PGES1 using PGH2 as substrate incubated after 75 secs by MDA-TBA assay

Prostaglandin G/H synthase 1, sequence (P23219 whole entry): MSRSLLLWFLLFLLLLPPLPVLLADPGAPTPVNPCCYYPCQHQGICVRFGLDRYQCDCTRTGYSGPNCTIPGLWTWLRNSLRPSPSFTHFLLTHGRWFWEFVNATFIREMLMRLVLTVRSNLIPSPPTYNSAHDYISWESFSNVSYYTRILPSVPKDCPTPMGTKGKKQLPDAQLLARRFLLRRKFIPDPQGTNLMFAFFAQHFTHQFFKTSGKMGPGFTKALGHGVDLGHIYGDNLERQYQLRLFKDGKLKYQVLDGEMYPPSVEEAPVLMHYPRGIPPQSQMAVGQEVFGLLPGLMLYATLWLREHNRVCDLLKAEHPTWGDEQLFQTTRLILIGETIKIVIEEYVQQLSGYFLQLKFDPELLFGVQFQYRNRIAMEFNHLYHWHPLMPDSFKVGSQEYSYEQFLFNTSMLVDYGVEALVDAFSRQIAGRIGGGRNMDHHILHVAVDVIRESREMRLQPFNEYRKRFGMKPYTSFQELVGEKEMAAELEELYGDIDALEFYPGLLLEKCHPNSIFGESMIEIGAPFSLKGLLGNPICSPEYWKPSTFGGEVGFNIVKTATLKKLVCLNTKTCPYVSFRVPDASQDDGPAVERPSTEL

Structure (SMILES): CC(C)c1cc2c(c(O)c1O)[C@@]13CCCC(C)(C)[C@@H]1C[C@@H]2OC3=O [CARNOSOL]
IC50 (Prostaglandin E synthase [1]): 5 µM

Structure (SMILES): CCc1oc(=O)c(Cc2c(O)c(CC=C(C)C)c(O)c(C(C)=O)c2O)c(O)c1C [ARZANOL]
IC50 [2]: ≥ 30 µM

Structure (SMILES): Cc1c(CC(C)(C)C(=O)O)n(Cc2ccc(Cl)cc2)c2cc(F)c(-c3ccccc3Cl)cc12
IC50 (Prostaglandin E synthase [3]; read-out: pIC50 (converted)): 0.00501 µM

Structure (SMILES): Cc1ccc(C)c(-c2cc(C(F)(F)F)nn2-c2ccc(S(N)(=O)=O)cc2)c1 [DIMETHYL CELECOXIB]
IC50 (Prostaglandin E synthase [3]; read-out: IC50): 0.6 µM

Structure (SMILES): CCCCCC(=O)Cc1cc(O)cc(O)c1C(=O)Oc1cc(O)c(C(=O)O)c(CCCCC)c1
IC50 [4]: > 30 µM
IC50 (Prostaglandin E synthase [1]): 1.15 µM

Structure (SMILES): O=C(Nc1ccc2c(c1)c1ccccc1n2CCO)c1ccccc1C(F)(F)F
IC50 (Prostaglandin E synthase [5]): 0.9 µM

Structure (SMILES): Cc1cc2nc(N3CCC(C(=O)NC4CCCC4)CC3)n(C(C)C)c2cc1C
IC50 (Prostaglandin E synthase [6]): 0.09 µM
IC50 [7]: 0.9 µM

Structure (SMILES): CC(C)c1cc2c(c(O)c1O)[C@@]1(C(=O)O)CCCC(C)(C)[C@@H]1CC2 [CARNOSIC ACID]
IC50 (Prostaglandin E synthase [1]): 5 µM

Structure (SMILES): O=C(Nc1cccc2ccccc12)c1cccc(NC(=O)c2ccccc2Cl)c1
IC50 (Prostaglandin E synthase [3]; read-out: IC50): 0.2 µM

Structure (SMILES): COc1cc(C(=O)NS(=O)(=O)c2ccccc2C)ccc1Cc1cn(C)c2ccc(NC(=O)OC3CCCC3)cc12 [ZAFIRLUKAST]
IC50 (Prostaglandin E synthase [9]): 18.1 µM

Structure (SMILES): CCCCCCC(Sc1nc(Cl)cc(Nc2cccc(C)c2C)n1)C(=O)O (stereo unspecified)
IC50 [10]: 2 µM

Structure (SMILES): CCCCCC(=O)Cc1cc(O)cc2c1C(=O)Oc1cc(O)c(C(=O)O)c(CCCCC)c1O2 [PHYSODIC ACID]
IC50 [4]: > 30 µM
IC50 (Prostaglandin E synthase [1]): 0.43 µM

Structure (SMILES): CC(=O)c1ccccc1-c1cc2c(C)c(CC(C)(C)C(=O)O)n(Cc3ccc(Cl)cc3)c2cc1F
IC50 (Prostaglandin E synthase [3]; read-out: pIC50 (converted)): 0.00398 µM

Structure (SMILES): CCc1oc(=O)c(C(c2ccccc2)c2c(O)c(CC=C(C)C)c(O)c(C(C)=O)c2O)c(O)c1C (stereo unspecified)
IC50 (Prostaglandin E synthase [1]): 0.8 µM

Structure (SMILES): CC1=NN(C(N)=S)C(=O)/C1=N/Nc1cccc(Br)c1
IC50 [11]: 0.62 µM
IC50 (Prostaglandin E synthase [12]): 1.8 µM

Further lines, results first:

inhibition [8]: 93.1%
Structure (SMILES): O=C1c2c(O)cc(O)cc2OC(c2ccc(O)cc2)C1O (stereo unspecified)

IC50 [4]: > 30 µM
IC50 (Prostaglandin E synthase [1]): 0.4 µM
Structure (SMILES): CCCCCc1cc(OC(=O)c2c(O)cc(O)cc2CCCCC)cc(O)c1C(=O)O

inhibition [8]: 94.3%
Structure (SMILES): COc1cc(O)ccc1C1Oc2cc(O)cc(O)c2C(=O)C1O (stereo unspecified)

IC50 (Prostaglandin E synthase [1]): 0.2 µM
Structure (SMILES): COc1cc(/C=C/C(=O)CC(=O)/C=C/c2ccc(O)c(OC)c2)ccc1O [CURCUMIN]

IC50 (Prostaglandin E synthase [3]; read-out: pIC50 (converted)): 0.00692 µM
Structure (SMILES): COc1ccccc1-c1cc2c(C)c(CC(C)(C)C(=O)O)n(Cc3ccc(Cl)cc3)c2cc1F

IC50 (Prostaglandin E synthase [1]): 1 µM
Structure (SMILES): CC(=O)c1c(O)c(CC=C(C)C)c(O)c(C(c2ccccc2)c2c(O)cc(C)oc2=O)c1O (stereo unspecified)
